Laboratory results from US6545006B1, “Process for obtaining L-dihydroorotic acid and use thereof” (Aventis Pharma Deutschland GmbH, priority 1997, dated 2003).

What was measured:
[1] = A77 1726 concentrations in serum from rats treated with leflunomide; assay type: in vivo, rat; settings: for A77 1726 concentrations in serum, Mean: leflunomide 10 mg/kg p.o. twice daily; for A77 1726 serum concentration: 3 hours after oral drug administration
Procedure: Animals: Male Wistar-Lewis rats (Mollegaard Breading Center Ltd. Ejby, DK) with a body weight of 160-200 g.
Adjuvant Arthritis: The disease was induced by injecting 0.1 ml Freund's adjuvant (6 mg Mycobacterium smegmatis suspended in 1 ml heavy, white paraffin oil (Merck, Darmstadt) into the root of Wistar-Lewis rat's tails. Pathological symptoms generally appear between 10 and 14 days after disease induction.
Drug Treatment: Drugs were suspended in 1% carboxymethylcellulose (COMC). […] (see table 12). At time point 0 h, 3 animals from both diseased and non-diseased groups were sacrificed to determine base-line levels. An additional 3 healthy and 3 diseased animals were treated with placebo (COMC alone) for 5 days.
Sampling: Three animals per group were sacrificed at each sampling time point. Serum and splenocytes taken at 3 h, 7 h, 27 h, 51 h, 75 h, and 99 h (see table 12). With the exception of the 7 h value, samples were taken three hours after the last drug application. The 7 h value was taken one hour after the second dosing. Samples from the placebo treated animals were taken at the 0 h (n=3) and 99 h (n=3) time points
Blood collected by heart puncture was stored for 30 min at 4° C. and then centrifuged for 10 min at 3000 rpm. Serum was separated and stored in Eppendorf-caps at −20° C. (3). Before HPLC analysis, the frozen serum was thawed and, in order to remove the proteins, 200 μl serum were added to a Microcon filter (model 10,code 42407, Amicon) and centrifuged for 30 min at 13 000 rpm.
The tubes were then mixed in a Vortex mixer and centrifuged at 2500 rpm (room temperature) for 10 minutes. For HPLC analysis, the supernatant (400 μl) was transferred to a vial and water (400 μl) added and mixed. The HPLC conditions were as follows: The hardware consisted of a TSP P2000 pump, a TSP AS1000 auto-sampler, a TSP SP4270 integrator, and a TSP UV100 UV-detector. Detection was at 292 nm wavelength. The mobile phase consisted of 650 ml methanol (CHROMASOLV), 2,42 g tetrabutylammoniumbromide, and 350 ml 0,05 M Ammoniumacetate. The flow rate was 0.5 ml/min A CHROMPACK Spherisorb ODS-2 10 cm column with a 1 cm reversed phase (R2) guard column was used. 100 μl was injected into the column and the running time was 7 min.

[2] = molecular target: T1, DHO-DH (Mus musculus, UniProt O35435); assay: Intracellular DHO-concentrations in A20.2.J cells incubated with A77 1726; assay type: cell-based; settings: for DHO-Concentration (μg/ml ± SD) Experiment 1 (E10 B) / DHO-Concentration (μg/ml ± SD) Experiment 2 (E14): 5 μM A77 1726, 24 hours, n=3
T1 construct: endogenous in cells; host or cells: A20.2.J cells
Procedure: Cell Culture: A20.2.J cells were cultured in serum free medium (37° C., 5% CO2) in an expansion culture at logarithmic cell growth. […] The percentage of dead cells were <8% (3).
Prepared cells were resuspended in a defined medium volume and cell density. Depending on expected DHO content, between 1-50 million cells were removed, pelleted (5 min, 350×g) and supernatant discarded. Cell were lysed, by adding 500 μl 1.2 M HCIO4. The lysates were transferred into 2 ml Eppendorf safe-lock-caps, and the protein precipitated by 2 min high speed centrifugation. The acidified lysates were completely removed, transferred into glass vials and, after addition of 500 μl chloroform, thoroughly mixed by 2 min vortexing. Cellular lipids were extracted following 10 min cold centrifugation (1502×g; 10° C.). The purified supernatants were collected in 2 ml Eppendorf caps for storage at −20° C. until high pressure liquid chromatography (HPLC) determination.
The chromatographic separation was performed as described in example 1.The range of the conductive detector was set to 10 μS. The analysis was performed at room temperature. The mobile phase was composed of 100 mM NaOH (A) and water (B). With that system the following gradient was produced:
(* all values extrapolated to 10×10^6 cells) (n=2).
The data are given as μg/ml DHO±SD extrapolated to ten million cells (0-4 h=n=2, 7 h=n=4).

T1 sequence (O35435 whole entry): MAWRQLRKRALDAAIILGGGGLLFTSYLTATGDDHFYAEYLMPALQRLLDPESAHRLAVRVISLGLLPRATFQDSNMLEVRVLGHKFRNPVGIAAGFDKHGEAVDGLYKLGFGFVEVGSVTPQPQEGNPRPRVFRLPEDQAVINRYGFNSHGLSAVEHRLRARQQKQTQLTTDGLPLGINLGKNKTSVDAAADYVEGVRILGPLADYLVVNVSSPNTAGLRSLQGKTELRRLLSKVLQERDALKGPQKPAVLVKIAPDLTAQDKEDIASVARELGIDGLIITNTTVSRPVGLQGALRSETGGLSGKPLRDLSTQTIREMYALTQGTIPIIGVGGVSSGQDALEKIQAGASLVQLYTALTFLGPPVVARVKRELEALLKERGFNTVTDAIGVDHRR

CC(O)=C(C#N)C(=O)Nc1ccc(C(F)(F)F)cc1 [A77 1726, N-(4-trifluoromethyl)-2-cyano-3-hydroxy-crotonamide]
A77 1726 concentrations in serum, Mean ([1]; Adjuvant Diseased Rats, 3 h): 26.33 µg/mL
A77 1726 concentrations in serum, Mean ([1]; Adjuvant Diseased Rats, 7 h): 42.3 µg/mL
A77 1726 concentrations in serum, Mean ([1]; Adjuvant Diseased Rats, 27 h): 19.7 µg/mL
A77 1726 concentrations in serum, Mean ([1]; Adjuvant Diseased Rats, 51 h): 9.2 µg/mL
A77 1726 concentrations in serum, Mean ([1]; Adjuvant Diseased Rats, 75 h): 9.9 µg/mL
A77 1726 concentrations in serum, Mean ([1]; Adjuvant Diseased Rats, 99 h): 12.2 µg/mL
A77 1726 concentrations in serum, Mean ([1]; Non-Diseased Rats, 3 h): 30.7 µg/mL
A77 1726 concentrations in serum, Mean ([1]; Non-Diseased Rats, 7 h): 47.9 µg/mL
A77 1726 concentrations in serum, Mean ([1]; Non-Diseased Rats, 27 h): 9.6 µg/mL
A77 1726 concentrations in serum, Mean ([1]; Non-Diseased Rats, 51 h): 7400 µg/mL
A77 1726 concentrations in serum, Mean ([1]; Non-Diseased Rats, 99 h): 12.7 µg/mL
A77 1726 serum concentration ([1]; adjuvant diseased rats): about 26 μg/ml
time to reach the 7 to 12 μg/ml A77 1726 serum concentrations ([1]; diseased animals): 51 h
time to reach the 7 to 12 μg/ml A77 1726 serum concentrations ([1]; non-diseased rats): 27 h
A77 1726 serum concentration ([1]; non-diseased rats): ~31 µg/mL
time of peak A77 1726 serum concentration ([1]; one hour after the second dosing): 7 h
DHO-Concentration (μg/ml ± SD) Experiment 1 (E10 B) ([2]; 1 ×10^6 cells extracted): 14.08 ± 2.40 µg/mL
DHO-Concentration (μg/ml ± SD) Experiment 2 (E14) ([2]; 1 ×10^6 cells extracted): 11.75 ± 0.23 µg/mL
Concentration DHO (μg/ml) mean ± SD ([2]; 1 × 10^6 cells/ml, 1 h, 5 μM A77 1726, extrapolated to 10×10^6 cells, n=2): 6.25 ± 0.42 µg/mL
Concentration DHO (μg/ml) mean ± SD ([2]; 1 × 10^6 cells/ml, 4 h, 5 μM A77 1726, extrapolated to 10×10^6 cells, n=2): 33.06 ± 2.26 µg/mL
Concentration DHO (μg/ml) mean ± SD ([2]; 1 × 10^6 cells/ml, 7 h, 5 μM A77 1726, extrapolated to 10×10^6 cells, n=2): 60.07 ± 0.01 µg/mL
incubation time after which detectable amounts of DHO could be determined ([2]; 1×10^6 cells/ml, independent of the drug concentration): 1 h
incubation time with the greatest amount of DHO determined ([2]; 1×10^6 cells/ml, saturation afterwards): 6 h
DHO-Concentration (μg/ml ± SD) Experiment 1 (E10 B) ([2]; 2 ×10^6 cells extracted): 19.51 ± 6.47 µg/mL
DHO-Concentration (μg/ml ± SD) Experiment 2 (E14) ([2]; 2 ×10^6 cells extracted): 28.27 ± 0.79 µg/mL
Concentration DHO (μg/ml) mean ± SD ([2]; 2 × 10^6 cells/ml, 1 h, 5 μM A77 1726, extrapolated to 10×10^6 cells, n=2): 5.47 ± 0.10 µg/mL
Concentration DHO (μg/ml) mean ± SD ([2]; 2 × 10^6 cells/ml, 4 h, 5 μM A77 1726, extrapolated to 10×10^6 cells, n=2): 26.36 ± 0.42 µg/mL
Concentration DHO (μg/ml) mean ± SD ([2]; 2 × 10^6 cells/ml, 7 h, 5 μM A77 1726, extrapolated to 10×10^6 cells, n=2): 42.31 ± 1.07 µg/mL
Concentration DHO (μg/ml) mean ± SD ([2]; 3 × 10^6 cells/ml, 1 h, 5 μM A77 1726, extrapolated to 10×10^6 cells, n=2): 5.63 ± 0.19 µg/mL
Concentration DHO (μg/ml) mean ± SD ([2]; 3 × 10^6 cells/ml, 4 h, 5 μM A77 1726, extrapolated to 10×10^6 cells, n=2): 19.39 ± 1.87 µg/mL
Concentration DHO (μg/ml) mean ± SD ([2]; 3 × 10^6 cells/ml, 7 h, 5 μM A77 1726, extrapolated to 10×10^6 cells, n=2): 28.79 ± 0.34 µg/mL
DHO-Concentration (μg/ml ± SD) Experiment 1 (E10 B) ([2]; 4 ×10^6 cells extracted): 53.58 ± 3.50 µg/mL
DHO-Concentration (μg/ml ± SD) Experiment 2 (E14) ([2]; 4 ×10^6 cells extracted): 57.20 ± 2.76 µg/mL
DHO-Concentration (μg/ml ± SD) Experiment 1 (E10 B) ([2]; 6 ×10^6 cells extracted): 73.01 ± 1.49 µg/mL
DHO-Concentration (μg/ml ± SD) Experiment 2 (E14) ([2]; 6 ×10^6 cells extracted): 85.38 ± 2.33 µg/mL
DHO-Concentration (μg/ml ± SD) Experiment 1 (E10 B) ([2]; 8 ×10^6 cells extracted): 99.89 ± 5.96 µg/mL
DHO-Concentration (μg/ml ± SD) Experiment 2 (E14) ([2]; 8 ×10^6 cells extracted): 107.02 ± 3.47 µg/mL
DHO-Concentration (μg/ml ± SD) Experiment 1 (E10 B) ([2]; 10 ×10^6 cells extracted): 113.37 ± 4.24 µg/mL
DHO-Concentration (μg/ml ± SD) Experiment 2 (E14) ([2]; 10 ×10^6 cells extracted): 128.73 ± 1.95 µg/mL
Concentration DHO (μg/ml) mean ± SD ([2]; A77 1726 5 μM, 0 h, one million cells/ml, extrapolated to ten million cells): 2.73 ± 0.10 µg/mL
Concentration DHO (μg/ml) mean ± SD ([2]; A77 1726 5 μM, 1 h, one million cells/ml, extrapolated to ten million cells): 9.20 ± 0.09 µg/mL
Concentration DHO (μg/ml) mean ± SD ([2]; A77 1726 5 μM, 2 h, one million cells/ml, extrapolated to ten million cells): 24.03 ± 1.15 µg/mL
Concentration DHO (μg/ml) mean ± SD ([2]; A77 1726 5 μM, 4 h, one million cells/ml, extrapolated to ten million cells): 59.48 ± 0.72 µg/mL
Concentration DHO (μg/ml) mean ± SD ([2]; A77 1726 5 μM, 7 h, one million cells/ml, extrapolated to ten million cells): 87.54 ± 1.58 µg/mL
Concentration DHO (μg/ml) mean ± SD ([2]; A77 1726 10 μM, 0 h, one million cells/ml, extrapolated to ten million cells): 2.73 ± 0.10 µg/mL
Concentration DHO (μg/ml) mean ± SD ([2]; A77 1726 10 μM, 1 h, one million cells/ml, extrapolated to ten million cells): 8.5 ± 0.39 µg/mL
Concentration DHO (μg/ml) mean ± SD ([2]; A77 1726 10 μM, 2 h, one million cells/ml, extrapolated to ten million cells): 20.74 ± 1.43 µg/mL
Concentration DHO (μg/ml) mean ± SD ([2]; A77 1726 10 μM, 4 h, one million cells/ml, extrapolated to ten million cells): 58.65 ± 2.06 µg/mL
Concentration DHO (μg/ml) mean ± SD ([2]; A77 1726 10 μM, 7 h, one million cells/ml, extrapolated to ten million cells): 82.65 ± 4.50 µg/mL
Concentration DHO (μg/ml) mean ± SD ([2]; A77 1726 25 μM, 0 h, one million cells/ml, extrapolated to ten million cells): 2.73 ± 0.08 µg/mL
Concentration DHO (μg/ml) mean ± SD ([2]; A77 1726 25 μM, 1 h, one million cells/ml, extrapolated to ten million cells): 15.05 ± 0.26 µg/mL
Concentration DHO (μg/ml) mean ± SD ([2]; A77 1726 25 μM, 2 h, one million cells/ml, extrapolated to ten million cells): 26.06 ± 0.20 µg/mL
Concentration DHO (μg/ml) mean ± SD ([2]; A77 1726 25 μM, 4 h, one million cells/ml, extrapolated to ten million cells): 50.21 ± 1.54 µg/mL
Concentration DHO (μg/ml) mean ± SD ([2]; A77 1726 25 μM, 7 h, one million cells/ml, extrapolated to ten million cells): 114.89 ± 3.61 µg/mL
accumulation of L-DHO in A20.2.J tumor cells ([2]; incubation with A77 1726): rapid accumulation of L-DHO
